Experimental data from US6339082B1, “Tricyclic compounds, preparation method and said method intermediates, application as medicines and pharmaceutical compositions containing same” (Aventis Pharma S.A., priority 1997, dated 2002).

molecular target: human αvβ3 receptor (Homo sapiens, UniProt P05106+P06756); test: Bond displacement Vitronectin/Vitronectin Receptor (αvβ3), binding competition test Vn/VR; details: human vitronectin coated plates, 3 hours at ambient temperature
Description: 1—Study by the Products of the Invention of the Bond Displacement: Vitronectin/Vitronectin Receptor (αvβ3) 96-well MaxiSorp plates are coated overnight at 4° C., with 100 μl of human Vitronectin (cf Yatohgo et al. Cell., Structure and fraction 13: 281-292 (1988)) at 2 μg/ml, (Dilution in coating buffer).
The next day, the wells are emptied and the ligands (Vitronectin) are then fixed (see fixation buffer) for 1 hour at ambient temperature under gentle agitation.
The wells are washed six times (see washing buffer), then the following are added per well and in this order:
40 μl of incubation buffer, 10 μl of the dilution of the product to be tested, (the products are diluted in a 50/50 mixture of DMSO—H2O) 50 μl of human αvβ3 receptor (cf Pytela et al. Methods Enzymol (1987)144:475) (dilution in incubation buffer, adapted according to the batch of receptor and according to the ligand).
The ligand, the human αvβ3 receptor and the products to be studied are incubated for 3 hours at ambient temperature under gentle agitation.
The wells are again washed six times, then incubated for 2 hours at ambient temperature under gentle agitation, in the presence of 100 μl of 4B12-HRP antibody, anti-receptor coupled to a peroxidase (the 4B12-HRP antibody is diluted in incubation buffer. The dilution is adapted according to the batch of receptor).
The wells are then washed six times before measurement of ligand-receptor bond is carried out using a peroxidase developer kit (TMB Microwell Peroxidase Substrate System Kirkegaard: Ref. cat. 50-76-00).
This kit contains a flask A of substrate (3,3′,5,5′-tetramethylbenzidine at 0.4 g/l) and a flask B (H2O2 at 0.02% in Citrate/Citric acid buffer). Extemporaneously, one volume of A is mixture with one volume of B, then the reaction mixture is distributed at the rate of 100 μl/well. The enzymatic reaction develops in 12′ for Vitronectin/αvβ3, then its development is stopped by the addition of 100 μl of 1M phosphoric acid.
The optical density is measured at 450 nm. […]
coating buffer: 0.05 M Carbonate, NaOH pH 9.6 fixation buffer: PBS containing 0.5% of BSA (pH 7.4) washing buffer: PBS containing 0.05% of Tween 20 (pH 7.4)
Expression of the results:
The following curve is plotted: the percentage of bond of human vitronectin as a function of the logarithm of the concentration of each product tested.
For each product the IC50 is determined according to the following formula:
BO=Maximum bond in the absence of any product Bmin=Minimum bond in the presence of the highest concentration of product.

SMILES	IC50 [µM]
COc1c(C(=O)NCC(NC(=O)OCc2ccccc2)C(=O)O)cc2c(c1OC)C1=C(CCC1)C(=NNC1=NCCN1)CC2 (racemic) [EX. 1, 3-[[[4-[(4,5-dihydro-1H-imidazol-2-yl)hydrazono]-9,10-dimethoxy-1,2,3,4,5,6-hexahydro-8-benz[e]azulenyl]-carbonyl]amino]—N-[(phenylmethoxy)carbonyl]-DL-alanine]	0.016
COc1c(C(=O)NCC(NC(=O)OCc2ccccc2)C(=O)O)cc2c(c1OC)C1=C(CCC1)C(=NNC1=NCCCN1)CC2 (racemic) [EX. 2, 3-[[[9,10-dimethoxy-1,2,3,4,5,6-hexahydro-4-[(1,4,5,6-tetrahydropyrimidin-2-yl)]-hydrazono]-8-benz[e]azulenyl]carbonyl]amino]-N-[(phenylmethoxy)carbonyl]-DL-alanine]	0.019
O=C(O)CC(NC(=O)c1ccc2c(c1)CCC(=NNC1=NCCN1)C1=C2CCC1)c1cccnc1 (stereo not drawn) [EX. 3, beta-[[[4-[(4,5-dihydro-1H-imidazol-2-yl) hydrazono]-1,2,3,4,5,6-hexahydro-8-benz[e]azulenyl]-carbonyl]-amino]-3-pyridine-3-yl-propanoic acid]	0.1
O=C(O)CC(NC(=O)c1ccc2c(c1)CCC(=NNC1=NCCN1)C1=C2CCC1)c1ccc2c(c1)OCO2 (stereo not shown) [EX. 4]	0.062
